This note sets out measurements from US20240360177A1, “PEPTIDES WITH ANTIMICROBIAL ACTIVITIES” (priority 2021, published 2024).

For assay [1], the system named is Fusarium spp.
The test system of assay [2] is Scedosporium spp. As to conditions: N = 2 strains; 72 hrs.
For assay [3], the system named is C. krusei. In words: microbe, parasite or virus in culture. As to conditions: Pichia kudriavzevii, 24 h, read-out: MIC C. krusei.
Assay [4] relates to C. parapsilosis. In words: microbe, parasite or virus in culture. To be noted: Lodderomyces parapsilosis, ATCC22019, 24 h, read-out: MIC C. parapsilosis.
Assay [5] deals with C. gattii. In words: microbe, parasite or virus in culture. As to conditions: Cryptococcus gattii, 72 h, read-out: MIC C. gattii.
Assay [6] has as its system C. neoformans. Put plainly: microbe, parasite or virus in culture. To be noted: Cryptococcus neoformans, ATCC90112, 72 h, read-out: MIC C. neoformans.
The subject of assay [7] is Microsporum gypseum ATCC 14683. In words: microbe, parasite or virus in culture. To be noted: Nannizzia gypsea, ATCC14683, read-out: MIC Microsporum gypseum.
In assay [8] the test system is C. auris. In words: microbe, parasite or virus in culture. To be noted: Candidozyma auris, 24 h, read-out: MIC C. auris.
Assay [9] relates to C. albicans. Put plainly: microbe, parasite or virus in culture. As to conditions: Candida albicans, ATCC90028, 24 h, read-out: MIC C. albicans.
Assay [10] concerns C. glabrata. Put plainly: microbe, parasite or virus in culture. As to conditions: Nakaseomyces glabratus, ATCC90030, 24 h, read-out: MIC C. glabrata.
In assay [11] the test system is C. tropicalis. In words: microbe, parasite or virus in culture. As to conditions: Candida tropicalis, ATCC90874, 24 h, read-out: MIC C. tropicalis.
Assay [12] relates to Epidermophyton floccosum ATCC 52066. Put plainly: microbe, parasite or virus in culture. As to conditions: ATCC52066, read-out: MIC Epidermophyton floccosum.
In assay [13] the test system is Trichophyton rubrum ATCC MYA-4438. Put plainly: microbe, parasite or virus in culture. As to conditions: read-out: MIC Trichophyton rubrum.
The subject of assay [14] is C. krusei. To be noted: 24 h.
For assay [15], the system named is Trichophyton rubrum ATCC MYA-4438.
In assay [16] the test system is C. neoformans. As to conditions: 72 h.
The test system of assay [17] is C. tropicalis. As to conditions: 24 h.
Assay [18] deals with C. auris. To be noted: 24 h.
Assay [19] concerns C. albicans. To be noted: 24 h.
Assay [20] deals with Epidermophyton floccosum ATCC 52066.
For assay [21], the system named is Mycobacterium smegmatis ATCC 700084. It counts as cell-based. As to conditions: ATCC 700084, 48 h.
Assay [22] deals with Pseudomonas aeruginosa ATCC 27853. It counts as cell-based.
Assay [23] concerns Microsporum gypseum ATCC 14683.
For assay [24], the system named is C. glabrata. To be noted: 24 h.
Assay [25] concerns C. parapsilosis. To be noted: 24 h.
Assay [26] relates to Enterococcus faecium ATCC 700221. To be noted: CAMHB.
Assay [27] deals with Staphylococcus aureus ATCC 29213. It counts as cell-based.
Assay [28] concerns Salmonella senftenberg CDC 127. It counts as cell-based.
The subject of assay [29] is Escherichia coli ATCC 25922. It counts as cell-based.
The subject of assay [30] is C. gattii. To be noted: 72 h.

The structures appear in SMILES notation. Converted amounts (≈) assume the structure as drawn. Like-named read-outs stand apart in the source and are kept apart here. Non-standard residues stand in square brackets, D forms with d. Residues, ends and D or L forms follow the SMILES beside them. Ahp = NCCCCCCC(=O)O; Ava = NCCCCC(=O)O

Regarding `CC[C@H](C)C[C@H](C)CCCCCCCCC(=O)N[C@H]1C[C@@H](O)[C@@H](NCCN)NC(=O)[C@@H]2[C@@H](O)CCN2C(=O)[C@H]([C@H](O)CCN)NC(=O)[C@H]([C@H](O)[C@@H](O)c2ccc(O)cc2)NC(=O)[C@@H]2C[C@@H](O)CN2C(=O)[C@H]([C@@H](C)O)NC1=O` [CAS, caspofungin], in assay [1] (N = 3 strains, 48 hrs), the “MIC Range Fusarium spp.” value worked out at 32 µg/mL (≈ 29.3 µM). Moreover, the “MIC Range Scedosporium spp.” value in assay [2] came out at 32 µg/mL (≈ 29.3 µM). Besides, the MIC in assay [3] amounted to 0.25 µg/mL (≈ 0.229 µM); in assay [4], 0.25 µg/mL (≈ 0.229 µM); in assay [5] it was 16 µg/mL (≈ 14.6 µM); in assay [6] it was 16 µg/mL (≈ 14.6 µM); in [7], 0.12 µg/mL (≈ 0.11 µM); in assay [8] it was 0.06 µg/mL (≈ 0.0549 µM). Besides, the MIC in [9] worked out at 0.03 µg/mL (≈ 0.0274 µM); in assay [10], 0.06 µg/mL (≈ 0.0549 µM); in assay [11], 0.03 µg/mL (≈ 0.0274 µM); in [12], 0.06 µg/mL (≈ 0.0549 µM); in assay [13], 2 µg/mL (≈ 1.83 µM).
Take `N=C(N)NCCC[C@@H](N)C(=O)N[C@@H](CCCNC(=N)N)C(=O)N[C@H](CCCNC(=N)N)C(=O)NCCCCCCC(=O)N[C@H](CCCNC(=N)N)C(=O)N[C@@H](CCCNC(=N)N)C(=O)N[C@H](CCCNC(=N)N)C(=O)NCCCCC(=O)N[C@H](CCCNC(=N)N)C(=O)N[C@@H](CCCNC(=N)N)C(=O)N[C@H](CCCNC(=N)N)C(=O)N[C@@H](CCCNC(=N)N)C(=O)NCCCCC(=O)N[C@H](CCCNC(=N)N)C(=O)N[C@@H](CCCNC(=N)N)C(=O)N[C@H](CCCNC(=N)N)C(=O)N[C@@H](CCCNC(=N)N)C(=O)N[C@@H](CS)C(=O)O` [SEQ ID NO: 5, rRr-(Ahp)-rRr-(Ava)-rRrR-(Ava)-rRrR-Cys] (H-[dR]R[dR][Ahp][dR]R[dR][Ava][dR]R[dR]R[Ava][dR]R[dR]RC-OH): the “MIC C. krusei” value in assay [14] was found to be 1 µg/mL (≈ 0.38 µM). Moreover, the “MIC Range Fusarium spp.” value in assay [1] (48 h) was 0.5 to 4 µg/mL. Also, the “MIC Trichophyton rubrum” value in assay [15] came out at 2 µg/mL (≈ 0.76 µM). Moreover, the “MIC C. neoformans” value in assay [16] was determined as 1 µg/mL (≈ 0.38 µM). Further, the “MIC C. tropicalis” value in assay [17] is 0.25 µg/mL (≈ 0.0949 µM). Further, the “MIC C. auris” value in assay [18] stood at 0.25 µg/mL (≈ 0.0949 µM). For the same molecule, the “MIC C. albicans” value in [19] came out at 1 µg/mL (≈ 0.38 µM). The “MIC Epidermophyton floccosum” value in assay [20] was 16 µg/mL (≈ 6.08 µM). Besides, in assay [21], the “MIC Mycobacterium smegmatis” value is 2 µg/mL (≈ 0.76 µM). In addition, the “MIC Pseudomonas aeruginosa” value in assay [22] amounted to 32 µg/mL (≈ 12.2 µM). Besides, in assay [23], the “MIC Microsporum gypseum” value was found to be 64 µg/mL (≈ 24.3 µM). The “MIC C. glabrata” value in assay [24] is 0.5 µg/mL (≈ 0.19 µM). In addition, the “MIC C. parapsilosis” value in assay [25] stood at 0.25 µg/mL (≈ 0.0949 µM). The “MIC Enterococcus faecium” value in [26] turned out to be 16 µg/mL (≈ 6.08 µM). In assay [27], the “MIC Staphylococcus aureus” value was determined as 8 µg/mL (≈ 3.04 µM). Further, the “MIC Salmonella senftenberg” value in assay [28] is 16 µg/mL (≈ 6.08 µM). The “MIC Escherichia coli” value in [29] worked out at 16 µg/mL (≈ 6.08 µM). Further, the “MIC C. gattii” value in assay [30] is 0.5 µg/mL (≈ 0.19 µM).
